Read-outs that look alike come from different tables or passages of the source.
Tested on: 3T3 L1 fibroblasts
Experiment: Glucose transport activity assay (14C-2-deoxy-D-glucose uptake)
Format: cell-based
Details: Mus musculus
Protocol: Glucose Transport Activity Assay.
Stimulation of the insulin receptor leads to the transport of glucose from the blood into cells, thus modulating blood glucose levels. 3T3 L1 fibroblasts (ATCC) were grown in Dulbecco's modified Eagle's medium (DMEM) with 10% fetal bovine serum (FBS). The cells were plated at a density of 3×10^4 cells/well in 24-well plates. Two days after confluence was reached, the cells were treated for 3 days with 0.5 mM isobutylmethylxanthine (IBMX), 1 μM dexamethasone, and 1.7 μM insulin. The cells were then transferred to DMEM with 10% FBS and supplemented with 1.7μM insulin for 2 more days. The cells were maintained in DMEM with 10% FBS for an additional 4 days. Finally the cells were serum-starved overnight in 0.1% bovine serum albumin (BSA) in DMEM.
The following day, the medium was replaced with 150 mM NaCl, 1.7 mM KCl, 0.9 mM CaCl2, K2HPO4 (pH 7.4) to which were added either the experimental compounds or their vehicle (DMSO). Insulin or its vehicle (0.01% BSA) was diluted in the assay buffer (containing test compound or vehicle, respectively) to final concentration of […]. After incubation for 30 min at 37° C., 5 μCi/ml ^14C-2-deoxy-D-glucose was added, and the incubation was continued for additional 30 min at 37° C. The cells were then washed 3 times with ice-cold PBS/20 mM glucose and lysed in 250 μl of lysis buffer (50 mM HEPES pH 7.6, 1% Triton X-100) for 30 min at room temperature. Radioactivity in the lysate was quantified by scintillation counting.
Once ^14C-2-deoxy-D-glucose is transported into the cell, it is not released. Glucose transport is, therefore, proportional to the amount of radioactivity in the lysate. The concentration of compound necessary to produce an increase in glucose transport to greater than 150% of the vehicle control (generally representing the sum of the standard deviation of the vehicle control plus the largest standard deviation of a test sample) was recorded as the EC (effective concentration). Shown in FIG. 3 is glucose uptake by cells at various concentrations when treated with Compound 13 and Compound 15.

[1] = EC (effective concentration) for increase in glucose transport, 14C-2-deoxy-D-glucose, 3T3 L1 cells, read-out: Concentration (μM) to reach >150% activity of vehicle control
[2] = 3T3-L1, read-out: Concentration (μM) to reach >150% activity of vehicle control

| Structure (SMILES) | EC (150% of vehicle control) [1] [µM] | EC (150% of vehicle control) [2] [µM] |
| --- | --- | --- |
| O=C(Nc1ccc2c(O)cc(S(=O)(=O)Nc3cccc(C(=O)O)c3Cl)cc2c1)Nc1ccc2c(O)cc(S(=O)(=O)Nc3cccc(C(=O)O)c3Cl)cc2c1 [Compound 59, 3-{[(7-{[N-(7-{[(3-carboxy-2-chlorophenyl)amino]sulfonyl}-5-hydroxy(2-naphthyl))carbamoyl]amino}-4-hydroxy(2-naphthyl))sulfonyl]amino}-2-chlorobenzoic acid] | 32 | – |
| O=C(Nc1ccc2c(O)cc(S(=O)(=O)Nc3cc(C(=O)O)ccc3Cl)cc2c1)Nc1ccc2c(O)cc(S(=O)(=O)Nc3cc(C(=O)O)ccc3Cl)cc2c1 [Compound 60, 3-{[(7-{[N-(7-{[(3-carboxy-6-chlorophenyl)amino]sulfonyl}-5-hydroxy(2-naphthyl))carbamoyl]amino}-4-hydroxy(2-naphthyl))sulfonyl]amino}-4-chlorobenzoic acid] | > 32 | – |
| COc1ccc(NS(=O)(=O)c2ccc3ccc(NC(=O)Nc4ccc5ccc(S(=O)(=O)Nc6ccc(OC)c(C(=O)O)c6)cc5c4)cc3c2)cc1C(=O)O [Compound 62, 5-{[(7-{[N-(7-{[(3-carboxy-4-methoxyphenyl)amino]sulfonyl}(2-naphthyl))carbamoyl]amino}(2-naphthyl))sulfonyl]amino}-2-methoxybenzoic acid] | 10 | – |
| O=C(Nc1ccc2ccc(S(=O)(=O)Nc3cc(C(=O)O)ccc3O)cc2c1)Nc1ccc2ccc(S(=O)(=O)Nc3cc(C(=O)O)ccc3O)cc2c1 [Compound 64, 3-{[(7-{[N-(7-{[(3-carboxy-6-hydroxyphenyl)amino]sulfonyl}(2-naphthyl))carbamoyl]amino}(2-naphthyl))sulfonyl]amino}-4-hydroxybenzoic acid] | 3.2 | – |
| COC(=O)c1ccc(OC)c(NS(=O)(=O)c2ccc3ccc(NC(=O)Nc4ccc5ccc(S(=O)(=O)Nc6cc(C(=O)OC)ccc6OC)cc5c4)cc3c2)c1 [Compound 65, methyl 4-methoxy-3-({[7-({[7-({[2-methoxy-5-(methoxycarbonyl)phenyl]amino}sulfonyl)(2-naphthyl)]amino}carbonylamino)(2-naphthyl)]sulfonyl}amino)benzoate] | > 32 | – |
| COc1ccc(C(=O)O)cc1NS(=O)(=O)c1ccc2ccc(NC(=O)Nc3ccc4ccc(S(=O)(=O)Nc5cc(C(=O)O)ccc5OC)cc4c3)cc2c1 [Compound 66, 3-{[(7-{[(7-{[(3-carboxy-6-methoxyphenyl)amino]sulfonyl}(2-naphthyl))amino]carbonylamino}(2-naphthyl))sulfonyl]amino}-4-methoxybenzoic acid] | 3.2 | – |
| O=C(Nc1ccc2ccc(S(=O)(=O)Nc3cccc(-c4nnn[nH]4)c3)cc2c1)Nc1ccc2ccc(S(=O)(=O)Nc3cccc(-c4nnn[nH]4)c3)cc2c1 [Compound 67, N-(7-{[(3-(1H-1,2,3,4-tetraazol-5-yl)phenyl)amino]sulfonyl}(2-naphthyl))[(7-{[(3-(1H-1,2,3,4-tetraazol-5-yl)phenyl)amino]sulfonyl}(2-naphthyl))amino]carboxamide] | 3.2 | – |
| O=C(Nc1ccc2c(O)cc(S(=O)(=O)Nc3cccc(-c4nnn[nH]4)c3)cc2c1)Nc1ccc2c(O)cc(S(=O)(=O)Nc3cccc(-c4nnn[nH]4)c3)cc2c1 [Compound 68, N-(5-hydroxy-7-{[(3-(1H-1,2,3,4-tetraazol-5-yl)phenyl)amino]sulfonyl}(2-naphthyl))[(5-hydroxy-7-{[(3-(1H-1,2,3,4-tetraazol-5-yl)phenyl)amino]sulfonyl}(2-naphthyl))amino]carboxamide] | 3.2 | – |
| O=C(Nc1ccc2c(O)cc(S(=O)(=O)Nc3ccc(-c4nnn[nH]4)cc3)cc2c1)Nc1ccc2c(O)cc(S(=O)(=O)Nc3ccc(-c4nnn[nH]4)cc3)cc2c1 [Compound 69, N-(5-hydroxy-7-{[(4-(1H-1,2,3,4-tetraazol-5-yl)phenyl)amino]sulfonyl}(2-naphthyl))[(5-hydroxy-7-{[(4-(1H-1,2,3,4-tetraazol-5-yl)phenyl)amino]sulfonyl}(2-naphthyl))amino]carboxamide] | > 32 | – |
| CCOP(=O)(O)c1cccc(NS(=O)(=O)c2ccc3ccc(NC(=O)Nc4ccc5ccc(S(=O)(=O)Nc6cccc(P(=O)(O)OCC)c6)cc5c4)cc3c2)c1 [Compound 71, N-[7-({[3-(ethoxy(hydroxyphosphoryl))phenyl]amino}sulfonyl)(2-naphthyl)]{[7-({[3-(ethoxy(hydroxyphosphoryl))phenyl]amino}sulfonyl)(2-naphthyl)]amino}carboxamide] | – | 3.2 |
| COC(=O)[C@H](Cc1ccc(O)cc1)NS(=O)(=O)c1ccc2ccc(NC(=O)Nc3ccc4ccc(S(=O)(=O)O)cc4c3)cc2c1 [Compound 72, 7-({[7-({[(1S)-2-(4-hydroxyphenyl)-1-(methoxycarbonyl)ethyl]amino}sulfonyl)-2-naphthyl]amino}carbonylamino)naphthalene-2-sulfonic acid] | 3.2 | – |
| O=C(Nc1ccc2ccc(S(=O)(=O)O)cc2c1)Nc1ccc2ccc(S(=O)(=O)N[C@@H](Cc3ccc(O)cc3)C(=O)O)cc2c1 [Compound 73, (2S)-3-(4-hydroxyphenyl)-2-{[(7-{[N-(7-sulfo(2-naphthyl))carbamoyl]amino}(2-naphthyl))sulfonyl]amino}propanoic acid] | 10 | – |
| COC(=O)[C@H](Cc1ccc(O)cc1)NS(=O)(=O)c1ccc2ccc(NC(=O)Nc3ccc4ccc(S(=O)(=O)N[C@@H](Cc5ccc(O)cc5)C(=O)OC)cc4c3)cc2c1 [Compound 74, methyl (2S)-2-({[7-({N-[7-({[(1S)-2-(4-hydroxyphenyl)-1-(methoxycarbonyl)ethyl]amino}sulfonyl)(2-naphthyl)]carbamoyl}amino)(2-naphthyl)]sulfonyl}amino)-3-(4-hydroxyphenyl)propanoate] | 3.2 | – |
| O=C(Nc1ccc2ccc(S(=O)(=O)N[C@@H](Cc3ccc(O)cc3)C(=O)O)cc2c1)Nc1ccc2ccc(S(=O)(=O)N[C@@H](Cc3ccc(O)cc3)C(=O)O)cc2c1 [Compound 75, (2S)-2-({[7-({N-[7-({[(1S)-1-carboxy-2-(4-hydroxyphenyl)ethyl]amino}sulfonyl)(2-naphthyl)]carbamoyl}amino)(2-naphthyl)]sulfonyl}amino)-3-(4-hydroxyphenyl)propanoic acid] | 3.2 | – |
| O=C(Nc1ccc2ccc(S(=O)(=O)O)cc2c1)Nc1ccc2ccc(S(=O)(=O)Nc3ncccn3)cc2c1 [Compound 78, 7-[({7-[(pyrimidin-2-ylamino)sulfonyl]-2-naphthyl}amino)carbonylamino]naphthalene-2-sulfonic acid] | 10 | – |
| O=C(Nc1ccc2ccc(S(=O)(=O)Nc3ncccn3)cc2c1)Nc1ccc2ccc(S(=O)(=O)Nc3ncccn3)cc2c1 [Compound 79, N-{7-[(pyrimidin-2-ylamino)sulfonyl](2-naphthyl)}({7-[(pyrimidin-2-ylamino)sulfonyl](2-naphthyl)}amino)carboxamide] | 10 | – |
| O=C(Nc1ccc2ccc(S(=O)(=O)Nc3cnccn3)cc2c1)Nc1ccc2ccc(S(=O)(=O)Nc3cnccn3)cc2c1 [Compound 80, N-{7-[(pyrazin-2-ylamino)sulfonyl](2-naphthyl)}({7-[(pyrazin-2-ylamino)sulfonyl](2-naphthyl)}amino)carboxamide] | 3.2 | – |
| O=C(Nc1ccc2ccc(S(=O)(=O)Nc3cccc(O)c3)cc2c1)Nc1ccc2ccc(S(=O)(=O)Nc3cccc(O)c3)cc2c1 [Compound 81, N-(7-{[(3-hydroxyphenyl)amino]sulfonyl}(2-naphthyl))[(7-{[(3-hydroxyphenyl)amino]sulfonyl}(2-naphthyl))amino]carboxamide] | 3.2 | – |
| O=C(Nc1ccc2c(O)cc(S(=O)(=O)Nc3cccc(CO)c3)cc2c1)Nc1ccc2c(O)cc(S(=O)(=O)Nc3cccc(CO)c3)cc2c1 [Compound 82, N-[5-hydroxy-7-({[3-(hydroxymethyl)phenyl]amino}sulfonyl)(2-naphthyl)]{[5-hydroxy-7-({[3-(hydroxymethyl)phenyl]amino}sulfonyl)(2-naphthyl)]amino}carboxamide] | 3.2 | – |
| N#Cc1cccc(NS(=O)(=O)c2ccc3ccc(NC(=O)Nc4ccc5ccc(S(=O)(=O)Nc6cccc(C#N)c6)cc5c4)cc3c2)c1 [Compound 83, N-(7-{[(3-cyanophenyl)amino]sulfonyl}(2-naphthyl))[(7-{[(3-cyanophenyl)amino]sulfonyl}(2-naphthyl))amino]carboxamide] | 3.2 | – |
| O=C(Nc1ccc2ccc(S(=O)(=O)Nc3cccc([N+](=O)[O-])c3)cc2c1)Nc1ccc2ccc(S(=O)(=O)Nc3cccc([N+](=O)[O-])c3)cc2c1 [Compound 84, N-(7-{[(3-nitrophenyl)amino]sulfonyl}(2-naphthyl))[(7-{[(3-nitrophenyl)amino]sulfonyl}(2-naphthyl))amino]carboxamide] | – | 3.2 |
